The source made the active and inactive calls. The calls are words filed in the database; no cut-off is given here.
Columns and labels:
[1] = biological target: Kir6.2/SUR1 (Rattus norvegicus) (UniProt P70673+Q09429); assay: Activation of Kir6.2/SUR1 in rat pancreatic islets assessed as residual glucose-induced insulin release at 10 uM relative to control
H9c2 [2] = assay: Effect on ATP production in […] H9C2 cells up to 10 uM after 24 hrs by CellTiter-Glo luminescent test; format: functional, cell-based
H9c2 [3] = assay: Effect on metabolic activity in […] H9C2 cells up to 10 uM incubated for 1 hr followed by paraquat addition measured after 24 hrs by CellTiter 96 Aqueous non-radioactive cell proliferation assay; format: functional, cell-based
H9c2 [4] = assay: Effect on maximal respiratory capacity in […] H9C2 cells at 10 uM by high resolution oxygraphic analysis; format: functional, cell-based
H9c2 [5] = assay: Effect on routine respiration in […] H9C2 cells at 10 uM by high resolution oxygraphic analysis; format: functional, cell-based
[6] = Drug uptake in mitochondria of […] H9C2 cells at 1 x 10^-4 M after 2 hrs by LC-MS analysis; format: ADME; conditions: h9c2, 2 h, 100 µM
[7] = Drug uptake in cytosol of […] H9C2 cells at 1 x 10^-4 M after 2 hrs by LC-MS analysis; format: ADME, cell-based; conditions: 100 µM
H9c2 [8] = assay: Effect on oligomycin-inhibited leak respiration in […] H9C2 cells at 10 uM by high resolution oxygraphic analysis; format: functional, cell-based

Activity [1] [%] | Drug uptake [6] | Drug uptake [7] | SMILES | Activity (H9c2 [2]) | Activity (H9c2 [3]) | Activity (H9c2 [4]) | Activity (H9c2 [5]) | Activity (H9c2 [8])
56 | – | – | C[C@H](COC(=O)CC[P+](c1ccccc1)(c1ccccc1)c1ccccc1)NC1=NS(=O)(=O)c2cc(Cl)ccc2N1 | inactive | inactive | inactive | inactive | –
73.9 | – | – | CC1=Nc2ccc(Cl)cc2S(=O)(=O)N1 | – | – | – | – | –
63.7 | – | – | C[C@H](COC(=O)CCC[P+](c1ccccc1)(c1ccccc1)c1ccccc1)NC1=NS(=O)(=O)c2cc(Cl)ccc2N1 | inactive | inactive | inactive | inactive | –
27 | Active | Active | C[C@H](COC(=O)C[P+](c1ccccc1)(c1ccccc1)c1ccccc1)NC1=NS(=O)(=O)c2cc(Cl)ccc2N1.[Cl-] | inactive | inactive | inactive | inactive | Active

From ChEMBL document CHEMBL2440097, “Triphenylphosphonium salts of 1,2,4-benzothiadiazine 1,1-dioxides related to diazoxide targeting mitochondrial ATP-sensitive potassium channels” (Bioorg Med Chem Lett, 2013)
